Molecules are shown by their SMILES.

The text below walks through data of US8524634B2, “Seed treatment with combinations of pyrethrins/pyrethroids and clothianidin” (priority 2000, dated 2013).

What all share (format): in vivo
The subject of data set [1] is corn plants. Nature of the data set: Vigor rating of corn plants at 12 DAP as indication of phytotoxicity from seed or soil treatment (Reference Example 1). Conditions: rating 1 extremely low vigor, 10 highest. As to the method:
(§1) A lambda-cyhalothrin seed treatment formulation was prepared by diluting the WARRIOR® T insecticide (Zeneca Ag Products, Wilmington, Del.), which contains 11.4% lambda-cyhalothrin as the active ingredient, into water as a carrier. This formulation was applied for one minute at room temperature to twenty-five grams of Pioneer corn seed (Cultivar PN3394) in a rotostatic seed treater at a rate of 125 g, 250 g or 500 g active ingredient (Al) to 100 kg seed. The treated seeds were allowed to sit uncapped for four to twenty-four hours before planting.
(§2) Treated and untreated seeds (Pioneer hybrid PN3394) were planted in a soil mix consisting of Dupo silt loam, 30% Perlite, 20% coarse sand (WB-10 grade) in six groups of tubs (20 in. L×15 in. W×8 in. D). Twelve seeds were planted per tub and three tubs were planted for each treatment regimen. Soil applications of FORCE® 3GR, which contains 3% tefluthrin granule as the active ingredient, were used for two sets of tubs containing untreated seeds. The FORCE 3GR was applied either in-furrow or incorporated into a 5 inch band on the soil surface at the time of planting. The tubs were overhead irrigated until the plants were infested with black cutworm larvae.
At twelve days after planting (DAP) but before infestation, the overall health of each plant was rated by looking at emergence, height and appearance. This vigor rating gives an indication of any phytotoxicity from the seed or soil treatment. A rating of 1 indicates extremely low. vigor while 10 is the highest vigor rating.

Data set [2] deals with black cutworm larvae. Nature of the data set: Black cutworm feeding damage on corn: lambda-cyhalothrin seed treatment vs tefluthrin soil granular treatments (Reference Example 1). The conditions noted are these: for Plant Defol. 3 DAI / Plant Defol. 7 DAI / Plant Defol. 10 DAI: rating 1=no damage, 10=complete defoliation. As to the method:
This example compares the efficacy of seed treatment with lambda-cyhalothrin (CAS #91465-08-6) to soil granular treatments with tefluthrin (CAS #79538-32-2) against feeding damage by black cutworm larvae on shoots and foliage.
as §1, §2
The rate of application for the FORCE 3GR was reported in units of grams of the active ingredient per hectare (g/ha), while the rate of application of the WARRIOR T to the seeds was reported in units of grams of the active ingredient per 100 kilograms of the seeds (g/100 kg). Although the conversion of one of these units to the other will vary somewhat according to the type of seed that is being used, the size and weight of the seed, and the density of planting that is used—among other things—an approximate conversion for corn seed can be carried out as follows. Assuming a seed application rate of lambda cyhalothrin of, for example, 125 g/100 kg of seed and a planting density of 15 lbs seed/ac, about 14.7 acres can be planted with 100 kg of the seed. This is an effective application rate of about 8.5 g of lambda cyhalthrin per acre. At 2.47 ac/ha, the seed treatment level of 125 g/100 kg is approximately equivalent to a surface banding treatment at about 21 g/ha.
The corn plants were infested at 12 DAP, which corresponds to late growth stage V1 by placing two black cutworm larvae at ¾ instar on the soil surface near the base of the plant. Plants were rated 3, 7 and 10 days after infestation (DAI) for the number of cut plants, as well as damage from leaf feeding. The percent stand reduction due to plant cutting was calculated by dividing the number of cut plants into the number of plants present at infestation. The foliar feeding injury was evaluated using a rating scale of 1=no damage and 10=complete defoliation.

For data set [3], the system named is black cutworm larvae. Nature of the data set: Protection of corn plants against black cutworm damage by seed treatment with tefluthrin, clothianidin and combinations; Colby synergy (Example 2). Conditions: for STAND REDUCTION (% at 10 days): 10 DAI; for Percent of Control: stand reduction as percent of untreated control. As to the method: This example illustrates the efficacy of corn seed treatment with a combination of tefluthrin and clothianidin against plant damage by black cutworm.
Seed treatment formulations were prepared from RAZE® 2.5 FS formulation (available from Wilbur-Ellis Co.) containing 26.8% tefluthrin, and clothianidin, (E)-(N-[(2-chloro-5-thiazolyl)methyl]-N′-methyl-N″-nitroguanidine; CAS Registry number 210880-92-5. In addition, separate seed treatment formulations were prepared from each of the two insecticides alone. Corn seed was prepared and treated as described in Reference Example 1, except that the treatment levels of the active ingredients on the seeds was as shown in Table 3. Treated and untreated seeds were planted in tubs and cultivated as described in Example 1. The tubs were overhead irrigated until the plants were infested with black cutworm larvae.
The corn plants were infested at 12 DAP, as described in Reference Example 1, Plants were rated at 10 days after infestation (DAI) for the number of cut plants. The percent stand reduction due to plant cutting was calculated by dividing the number of cut plants into the number of plants present at infestation.
Whether a combination of insecticides provided synergy in protection against cutworm damage was calculated as described by Colby, Robert. S., in Weeds, 15(1):20-22 (1967). The threshold value (stated as % of control) for synergy of a combination was calculated as =(% of control for treatment A)*(% of control for treatment B)/100(n−1); where n=number of active ingredients in combination. A measured % of control value that is less than the threshold value indicates synergy of the combination. Threshold values for synergy were calculated for each of the combinations of Table 3, and the threshold values for synergy of combinations of the active ingredients at various levels are shown in Table 4.

Where [4] appears, read: seed treatment 125 g/100 kg seed.
The mark [5] stands for this setting: seed treatment 250 g/100 kg seed.
Where [6] appears, read: seed treatment 500 g/100 kg seed.

As for `Cc1c(F)c(F)c(COC(=O)[C@@H]2[C@H](/C=C(\Cl)C(F)(F)F)C2(C)C)c(F)c1F` (racemic) [Tefluthrin, (2,3,5,6-tetrafluoro-4-methylphenyl)-methyl-(1 alpha, 3 alpha)-(Z)-(±)-3-(2-chloro-3,3,3-trifluoro-1-propenyl)-2,2-dimethylcyclopropanecarboxylate], the “Vigor at 12 DAP” value in data set [1] (soil granule (FORCE 3GR) banded 30 g/ha) is given as 8.7. Also, in data set [1] (soil granule (FORCE 3GR) in-furrow 30 g/ha), the “Vigor at 12 DAP” value was 9.0. In addition, in data set [2] (banded 30 g/ha (FORCE 3GR)), the “Plant Defol. 3 DAI” value came out at 1.7, the “% Stand Reduct'n 7 DAI” value amounted to 0.0%, the “Plant Defol. 7 DAI” value was 1.7 and the “% Stand Reduct'n 10 DAI” value is on record as 0.0%. Besides, the “Plant Defol. 10 DAI” value in data set [2] (banded 30 g/ha (FORCE 3GR)) is listed as 0.3. Moreover, the “% Stand Reduct'n 3 DAI” value in data set [2] (banded 30 g/ha (FORCE 3GR, 5 inch soil surface band)) was found to be 0.0%. Besides, in data set [2] (in-furrow 30 g/ha (FORCE 3GR)), the “Plant Defol. 3 DAI” value came out at 5.0, the “% Stand Reduct'n 7 DAI” value is 48.0%, the “Plant Defol. 7 DAI” value is 6.0 and the “% Stand Reduct'n 10 DAI” value came out at 48.0%. Moreover, the “Plant Defol. 10 DAI” value in data set [2] (in-furrow 30 g/ha (FORCE 3GR)) is 5.3.

In the case of `CN/C(=N\[N+](=O)[O-])NCc1cnc(Cl)s1` [Clothianidin, (E)-1-(2-chloro-1,3-thiazol-5-ylmethyl)-3-methyl-2-nitroguanidine], the “STAND REDUCTION (% at 10 days)” value in data set [3] (seed treatment clothianidin 50 gm/100 kg seed) is reported as 61.15%; in data set [3] (seed treatment clothianidin 100 gm/100 kg seed) it was 34.38%. Also, the “Percent of Control” value in data set [3] (clothianidin 50 gm/100 kg seed) was determined as 61.2%; in data set [3] (clothianidin 100 gm/100 kg seed) it was 34.4%.

On to `CC1(C)[C@H](C(=O)O[C@H](C#N)c2cccc(Oc3ccccc3)c2)[C@@H]1/C=C(\Cl)C(F)(F)F` [λ-cyhalothrin, [1 alpha (s), 3 alpha(z)]-cyano(3-phenoxyphenyl)methyl-3-(2-chloro-3,3,3-trifluoro-1-propenyl)-2,2-dimethylcyclopropane carboxylate], for which the “Vigor at 12 DAP” value in data set [1] (seed treatment 125 g AI/100 kg corn seed) was 9.0; in data set [1] (seed treatment 250 g AI/100 kg corn seed), 8.3; in data set [1] (seed treatment 500 g AI/100 kg corn seed) it was 8.3. Further, the results for the “Plant Defol. 3 DAI” value in data set [2] (setting [4]), in data set [2] (setting [5]) and in data set [2] (setting [6]) were 4.3, 3.7 and 2.0, respectively. In addition, the “Plant Defol. 7 DAI” value in data set [2] (setting [4]) was found to be 5.0; in data set [2] (setting [5]), 2.7; in data set [2] (setting [6]) it was 2.3. Further, the results for the “Plant Defol. 10 DAI” value in data set [2] (setting [4]), in data set [2] (setting [5]) and in data set [2] (setting [6]) were 3.3, 1.7 and 1.0, respectively. Also, the “% Stand Reduct'n 3 DAI” value was found to be 3.0% in data set [2] (setting [5]) and 0.0% in data set [2] (setting [6]). Further, the “% Stand Reduct'n 7 DAI” value in data set [2] (setting [5]) is 3.0%; in data set [2] (seed treatment 250 g/100 kg seed, listed as lambda-cyhalothrin) it was 3%; in data set [2] (setting [6]), 0.0%; in data set [2] (seed treatment 500 g/100 kg seed, listed as lambda-cyhalothrin) it was 0%. Besides, the “% Stand Reduct'n 10 DAI” value in data set [2] (setting [5]) is reported as 3.0%; in data set [2] (setting [6]), 0.0%.
